# Key:
# Assay in all cases: MIC, antibacterial and synergistic activity
# Format in all cases: cell-based
# E. coli ATCC 25922 = E. coli ATCC 25922 (Wt)
# E.coli JMI 4103 = E.coli JMI 4103 (KPC-2, Tem-1, CMY-Type)
# E. coli JMI 4080 = system: E. coli JMI 4080
# E. coli JMI 10767 [1] = settings: E. coli JMI 10767 (Wt)
# Experimental: (§1) In the Tables 10 - 12, compounds herein disclosed were tested in combination with various antibiotics against metallo β-lactamase producing bacteria. Table 3: Synergy of the inhibitor Ex. 1 (4 µg/mL) in combination with antibiotics
# E. coli JMI 10768 [2] = settings: E. coli JMI 10768 (CTX-M15 (Weak ESBL))
# Experimental: as §1
# E. coli JMI 10770 = E. coli JMI 10770 (CTX-M15 (Hyper ESBL))
# Experimental: as §1
# E. coli JMI 2665 = system: E. coli JMI 2665
# Experimental: as §1
# E. coli JMI 2671 = system: E. coli JMI 2671
# Procedure, shortened: (§2)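 Synergistic activity: antibiotics tested with inhibitor (4 µg/mL fixed) against strains expressing metallo β-lactamases.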
# K. pneumo JMI 2699 = K. pneumo JMI 2699 (VIM-1, CTX-M3)
# Procedure, shortened: as §2
# K.pneumo JMI 4109 = K.pneumo JMI 4109 (SHV-1, SHV-12)
# Procedure, shortened: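 Antibacterial synergy was assessed by pairing each inhibitor compound, at a constant concentration of 4 µg/mL, with β-lactam antibiotics. The combinations were run against bacterial strains that produce β-lactamases, and the readout was the minimum inhibitory concentration of the antibiotic in the presence of the inhibitor.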
# K. pneumo JMI 4106 = K. pneumo JMI 4106 (KPC-3, TEM-1, SHV-12, SHV-141)
# E. coli JMI 2692 = E. coli JMI 2692 (NDM-1, TEM-1, CTX-M-15)
# Experimental: (§3) In the Tables 10 - 12, compounds herein disclosed were tested in combination with various antibiotics against metallo β-lactamase producing bacteria.
# K. pneumo JMI 2693 = K. pneumo JMI 2693 (NDM-1 (Cpase))
# Experimental: as §3
# K. pneumo JMI 2697 = K. pneumo JMI 2697 (IMP-4 (Cpase))
# Experimental: as §3
# K. pneumo JMI 2681 = K. pneumo JMI 2681 (Oxa-48 (Cpase))
# P. aerug JMI 149 = P. aerug JMI 149 (Bla+++D+)
# K. pneumo JMI 2674 = K. pneumo JMI 2674 (CTX-M15 (ESBL)); substance alone
# K. pneumo JMI 4088 = K. pneumo JMI 4088 (KPC-3 (Cpase)); substance alone
# P. aerug JMI 2686 = P. aerug JMI 2686 (KPC-2 (Cpase)); substance alone
# E. coli JMI 10767 [3] = settings: E. coli JMI 10767 (Wt); remark: listed apart in the source
# E. coli JMI 10768 [4] = settings: E. coli JMI 10768 (CTX-M15 (Weak ESBL)); Meropenem + inhibitor at 4 µg/mL
# E. coli JMI 11103 = system: E. coli JMI 11103
# [5] = Aztreonam + inhibitor at 4 µg/mL
# [6] = Ceftazidime + inhibitor at 4 µg/mL
# [7] = Meropenem + inhibitor at 4 µg/mL
smiles,measurement,setting,value
"O=C(NO[C@H]1CCCNC1)[C@@H]1CC[C@@H]2CN1C(=O)N2OS(=O)(=O)O [Ex. 2, (2S,5R)-7-Oxo-N-[(3S)-piperidin-3-yloxy] -6-(sulfooxy)-1,6-diazabicyclo[3.2.1]octane-2-carboxamide]",MIC Aztreonam + inhibitor,E. coli ATCC 25922; [5],≤.062 µg/mL
same,MIC Ceftazidime + inhibitor,E. coli ATCC 25922; [6],≤0.25 µg/mL
same,MIC Meropenem + inhibitor,E. coli ATCC 25922; [7],≤.031 µg/mL
same,MIC,"E. coli ATCC 25922; Escherichia coli, ATCC25922, substance alone",1 µg/mL
same,MIC Aztreonam + inhibitor,E.coli JMI 4103; [5],>4 µg/mL
same,MIC Ceftazidime + inhibitor,E.coli JMI 4103; [6],8 µg/mL
same,MIC Meropenem + inhibitor,E.coli JMI 4103; [7],≤.031 µg/mL
same,MIC,"E.coli JMI 4103; Escherichia coli, JMI4103, substance alone",8 µg/mL
same,MIC Aztreonam + inhibitor,"E. coli JMI 4080; E. coli JMI 4080 (Tem-10), Aztreonam + inhibitor at 4 µg/mL",≤.062 µg/mL
same,MIC Ceftazidime + inhibitor,"E. coli JMI 4080; E. coli JMI 4080 (Tem-10), Ceftazidime + inhibitor at 4 µg/mL",≤0.25 µg/mL
same,MIC Meropenem + inhibitor,"E. coli JMI 4080; E. coli JMI 4080 (Tem-10), Meropenem + inhibitor at 4 µg/mL",≤.031 µg/mL
same,MIC,"E. coli JMI 4080; Escherichia coli, JMI4080, E. coli JMI 4080 (Tem-10), substance alone",4 µg/mL
same,MIC Aztreonam + inhibitor,E. coli JMI 10767 [1]; [5],≤.062 µg/mL
same,MIC Ceftazidime + inhibitor,E. coli JMI 10767 [1]; [6],≤0.25 µg/mL
same,MIC Aztreonam + inhibitor,E. coli JMI 10768 [2]; [5],≤.062 µg/mL
same,MIC Ceftazidime + inhibitor,E. coli JMI 10768 [2]; [6],≤0.25 µg/mL
same,MIC,"E. coli JMI 10768 [2]; Escherichia coli, JMI10768, substance alone",4 µg/mL
same,MIC Aztreonam + inhibitor,E. coli JMI 10770; [5],≤.062 µg/mL
same,MIC Ceftazidime + inhibitor,E. coli JMI 10770; [6],≤0.25 µg/mL
same,MIC Meropenem + inhibitor,E. coli JMI 10770; [7],≤.031 µg/mL
same,MIC Aztreonam + inhibitor,"E. coli JMI 2665; E. coli JMI 2665 (CMY-2 (Plasmid Cpase)), Aztreonam + inhibitor at 4 µg/mL",≤.062 µg/mL
same,MIC Ceftazidime + inhibitor,"E. coli JMI 2665; E. coli JMI 2665 (CMY-2 (Plasmid Cpase)), Ceftazidime + inhibitor at 4 µg/mL",≤0.25 µg/mL
same,MIC Meropenem + inhibitor,"E. coli JMI 2665; E. coli JMI 2665 (CMY-2 (Plasmid Cpase)), Meropenem + inhibitor at 4 µg/mL",≤.031 µg/mL
same,MIC,"E. coli JMI 2665; Escherichia coli, JMI2665",≤ 0.5 µg/mL
same,MIC Aztreonam + inhibitor,"E. coli JMI 2671; E. coli JMI 2671 (VIM-19 (Cpase)), Aztreonam + inhibitor at 4 µg/mL",≤.062 µg/mL
same,MIC Ceftazidime + inhibitor,"E. coli JMI 2671; E. coli JMI 2671 (VIM-19 (Cpase)), Ceftazidime + inhibitor at 4 µg/mL",0.5 µg/mL
same,MIC Meropenem + inhibitor,"E. coli JMI 2671; E. coli JMI 2671 (VIM-19 (Cpase)), Meropenem + inhibitor at 4 µg/mL",0.125 µg/mL
same,MIC,"E. coli JMI 2671; Escherichia coli, JMI2671, E. coli JMI 2671 (VIM-19 (Cpase)), substance alone",> 16 µg/mL
same,MIC Aztreonam + inhibitor,K. pneumo JMI 2699; [5],≤.062 µg/mL
same,MIC Ceftazidime + inhibitor,K. pneumo JMI 2699; [6],≤0.25 µg/mL
same,MIC Meropenem + inhibitor,K. pneumo JMI 2699; [7],0.062 µg/mL
same,MIC,"K. pneumo JMI 2699; substance alone, read-out: MIC",4 µg/mL
same,MIC Aztreonam + inhibitor,K.pneumo JMI 4109; [5],≤.062 µg/mL
same,MIC Ceftazidime + inhibitor,K.pneumo JMI 4109; [6],≤0.25 µg/mL
same,MIC Meropenem + inhibitor,K.pneumo JMI 4109; [7],≤.031 µg/mL
same,MIC Aztreonam + inhibitor,K. pneumo JMI 4106; [5],≤.062 µg/mL
same,MIC Ceftazidime + inhibitor,K. pneumo JMI 4106; [6],≤0.25 µg/mL
same,MIC Meropenem + inhibitor,K. pneumo JMI 4106; [7],≤.031 µg/mL
same,MIC,"K. pneumo JMI 4106; substance alone, read-out: MIC",> 16 µg/mL
same,MIC Aztreonam + inhibitor,E. coli JMI 2692; [5],≤.062 µg/mL
same,MIC Ceftazidime + inhibitor,E. coli JMI 2692; [6],≤0.25 µg/mL
same,MIC Meropenem + inhibitor,E. coli JMI 2692; [7],≤.031 µg/mL
same,MIC,"E. coli JMI 2692; Escherichia coli, JMI2692, substance alone, read-out: MIC",≤ 0.5 µg/mL
same,MIC Aztreonam + inhibitor,K. pneumo JMI 2693; [5],≤.062 µg/mL
same,MIC Ceftazidime + inhibitor,K. pneumo JMI 2693; [6],≤0.25 µg/mL
same,MIC Meropenem + inhibitor,K. pneumo JMI 2693; [7],≤.031 µg/mL
same,MIC,K. pneumo JMI 2693; substance alone,4 µg/mL
same,MIC Aztreonam + inhibitor,K. pneumo JMI 2697; [5],≤.062 µg/mL
same,MIC Ceftazidime + inhibitor,K. pneumo JMI 2697; [6],0.5 µg/mL
same,MIC Meropenem + inhibitor,K. pneumo JMI 2697; [7],≤.031 µg/mL
same,MIC,K. pneumo JMI 2697; substance alone,4 µg/mL
same,MIC Aztreonam + inhibitor,K. pneumo JMI 2681; [5],2 µg/mL
same,MIC Ceftazidime + inhibitor,K. pneumo JMI 2681; [6],1 µg/mL
same,MIC Meropenem + inhibitor,K. pneumo JMI 2681; [7],>2 µg/mL
same,MIC,"K. pneumo JMI 2681; substance alone, read-out: MIC",> 16 µg/mL
same,MIC Aztreonam + inhibitor,P. aerug JMI 149; [5],>4 µg/mL
same,MIC Ceftazidime + inhibitor,P. aerug JMI 149; [6],4 µg/mL
same,MIC Meropenem + inhibitor,P. aerug JMI 149; [7],0.5 µg/mL
same,MIC,"P. aerug JMI 149; substance alone, read-out: MIC",> 16 µg/mL
same,MIC,K. pneumo JMI 2674,> 16 µg/mL
same,MIC,K. pneumo JMI 4088,1 µg/mL
same,MIC,P. aerug JMI 2686,> 16 µg/mL
same,MIC Meropenem + inhibitor,E. coli JMI 10767 [3]; [7],≤.031 µg/mL
same,MIC,"E. coli JMI 10767 [3]; Escherichia coli, JMI10767, substance alone",4 µg/mL
same,MIC Meropenem + inhibitor,E. coli JMI 10768 [4],≤.031 µg/mL
same,MIC Aztreonam + inhibitor,"E. coli JMI 11103; E. coli JMI 11103 (CTX-M15 (Intermediate ESBL)), Aztreonam + inhibitor at 4 µg/mL",≤.062 µg/mL
same,MIC Ceftazidime + inhibitor,"E. coli JMI 11103; E. coli JMI 11103 (CTX-M15 (Intermediate ESBL)), Ceftazidime + inhibitor at 4 µg/mL",≤0.25 µg/mL
same,MIC Meropenem + inhibitor,"E. coli JMI 11103; E. coli JMI 11103 (CTX-M15 (Intermediate ESBL)), Meropenem + inhibitor at 4 µg/mL",≤.031 µg/mL
same,MIC,"E. coli JMI 11103; Escherichia coli, JMI11103, E. coli JMI 11103 (CTX-M15 (Intermediate ESBL)), substance alone",4 µg/mL

# From patent EP2931723B1, “NEW BICYCLIC COMPOUNDS AND THEIR USE AS ANTIBACTERIAL AGENTS AND -LACTAMASE INHIBITORS” (Fedora Pharmaceuticals Inc., priority 2012, dated 2014)
